The subject of the assay is U266. Put plainly: MTT viability assay, U266. Type of assay: cell-based. The conditions noted are these: Homo sapiens, U-266, Multiple Myeloma, read-out: IC50 Avg ± s.d. (n = 3), U266. The text has this: Cell Lines: PC-9 cell line used was obtained from Sigma Aldrich and grown in RPMI 1640 medium with 10% fetal bovine serum and 1% penicillin/streptomycin. HCC4006, U266, MM1.s, and Beas-2B cell lines were obtained from ATCC and cultured in either RPMI 1640 or DMEM with 10% fetal bovine serum and 1% penicillin/streptomycin. All cell lines were also checked for mycoplasma every six months and subjected to short tandem repeat (STR) analysis for cell line validation. CRISPR Cas9: CRISPR Guide RNA 2 targeting ERO1α and CRISPR Guide RNA 4 were purchased from Genscript in the pLentiCRISPR V2 plasmid containing puromycin/ampicillin selection marker. Lentivirus was made from HEK 293T cells by co-transfection with GuideRNA of interest, pVSVG, and pPAX2 plasmids. […] Plate was then read on the BioTek Cytation 5 at 530/590 nm. […] Plate was then read at 570 nm. Treated wells were all compared to DMSO control wells to calculate percent growth inhibition and the IC50 was calculated using GraphPad (log(inhibitor) vs growth inhibition). […] Images were then quantified using ImageJ. […] Cells were aliquoted at 1 million cells per PCR tube in PBS and heated in Bio-Rad T100 thermal cycler at indicated temperatures (RT, 46° C., 48° C., 50° C., 52° C., 54° C., 56°, 58° C., and 60° C.) for 3 minutes and aggregation temperature was determined by western blot analysis. […]
In general terms: Tetrazolium assays rely on reduction of a dye to a coloured formazan, in cell work by metabolically active cells.

The structures appear in SMILES notation.

One may read the IC50 as the concentration at which inhibition is half-maximal. Regarding `CN(C)c1ccc(/C=C2\Oc3cc(O)ccc3C2=O)cc1` [Compound T151742], the IC50 was determined as 8.93 ± 1.13 µM.

The values are drawn from US20250064773A1, “TARGETING ERO1 ALPHA WITH AURONE DERIVATIVES” (West Virginia University Board of Governors on behalf of …, priority 2021, published 2025).
